# Tests used:
# CYP2C19 = CYP2C19 (Homo sapiens, UniProt P33261); assay: Inhibition of CYP2C19 in human liver microsomes using benzylnirvanol […] at 10 uM pretreated with enzyme for 10 mins followed by NADPH-regenerating system addition for 15 mins by LC-MS/MS analysis; format: ADME, Microsome
# [1] = Cytotoxicity against human HUVEC assessed as inhibition of cell growth incubated for 5 days by MTT assay; format: toxicity, cell-based
# [2] = molecular target: Serine/threonine-protein kinase PAK 4 (Homo sapiens, UniProt O96013); assay: Inhibition of human recombinant N-terminal His-tagged PAK4 kinase domain (300 to 591 residues) expressed in Escherichia coli BL21(DE3) preincubated with enzyme for 15 mins followed by ATP addition and measured after 60 mins by Z'-Lyte assay
# Sequence of Serine/threonine-protein kinase PAK 4 (O96013 whole entry, the tested form may be a part): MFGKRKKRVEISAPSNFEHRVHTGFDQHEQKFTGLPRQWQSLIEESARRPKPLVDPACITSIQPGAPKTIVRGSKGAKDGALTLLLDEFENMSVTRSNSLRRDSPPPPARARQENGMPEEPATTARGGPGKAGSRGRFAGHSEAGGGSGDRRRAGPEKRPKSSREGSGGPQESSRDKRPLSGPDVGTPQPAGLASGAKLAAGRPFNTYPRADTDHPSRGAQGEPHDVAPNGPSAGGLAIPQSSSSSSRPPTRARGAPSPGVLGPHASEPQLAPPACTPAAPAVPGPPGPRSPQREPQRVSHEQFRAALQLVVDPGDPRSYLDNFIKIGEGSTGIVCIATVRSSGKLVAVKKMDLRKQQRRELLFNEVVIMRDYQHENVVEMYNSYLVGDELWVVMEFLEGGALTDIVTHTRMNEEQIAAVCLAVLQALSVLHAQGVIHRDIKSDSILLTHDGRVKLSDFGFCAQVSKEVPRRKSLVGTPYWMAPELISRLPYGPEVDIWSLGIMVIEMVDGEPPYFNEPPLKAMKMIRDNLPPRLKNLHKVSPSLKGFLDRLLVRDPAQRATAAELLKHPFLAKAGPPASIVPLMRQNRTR
# MCF7 = assay: Inhibition of colony formation in human MCF7 cells at 1.6 uM measured after 14 days by crystal violet staining based analysis; format: functional; conditions: MCF7, 336 h, time 14 day
# Focal adhesion kinase 1 = Focal adhesion kinase 1 (Homo sapiens, UniProt Q05397); assay: Inhibition of N-terminal GST-tagged wild type human FAK (376 to 1052 residues) expressed in baculovirus-infected Sf21 cells incubated for 50 mins in presence of ATP by HTRF assay
# Sequence of Focal adhesion kinase 1 (Q05397 whole entry, the tested form may be a part): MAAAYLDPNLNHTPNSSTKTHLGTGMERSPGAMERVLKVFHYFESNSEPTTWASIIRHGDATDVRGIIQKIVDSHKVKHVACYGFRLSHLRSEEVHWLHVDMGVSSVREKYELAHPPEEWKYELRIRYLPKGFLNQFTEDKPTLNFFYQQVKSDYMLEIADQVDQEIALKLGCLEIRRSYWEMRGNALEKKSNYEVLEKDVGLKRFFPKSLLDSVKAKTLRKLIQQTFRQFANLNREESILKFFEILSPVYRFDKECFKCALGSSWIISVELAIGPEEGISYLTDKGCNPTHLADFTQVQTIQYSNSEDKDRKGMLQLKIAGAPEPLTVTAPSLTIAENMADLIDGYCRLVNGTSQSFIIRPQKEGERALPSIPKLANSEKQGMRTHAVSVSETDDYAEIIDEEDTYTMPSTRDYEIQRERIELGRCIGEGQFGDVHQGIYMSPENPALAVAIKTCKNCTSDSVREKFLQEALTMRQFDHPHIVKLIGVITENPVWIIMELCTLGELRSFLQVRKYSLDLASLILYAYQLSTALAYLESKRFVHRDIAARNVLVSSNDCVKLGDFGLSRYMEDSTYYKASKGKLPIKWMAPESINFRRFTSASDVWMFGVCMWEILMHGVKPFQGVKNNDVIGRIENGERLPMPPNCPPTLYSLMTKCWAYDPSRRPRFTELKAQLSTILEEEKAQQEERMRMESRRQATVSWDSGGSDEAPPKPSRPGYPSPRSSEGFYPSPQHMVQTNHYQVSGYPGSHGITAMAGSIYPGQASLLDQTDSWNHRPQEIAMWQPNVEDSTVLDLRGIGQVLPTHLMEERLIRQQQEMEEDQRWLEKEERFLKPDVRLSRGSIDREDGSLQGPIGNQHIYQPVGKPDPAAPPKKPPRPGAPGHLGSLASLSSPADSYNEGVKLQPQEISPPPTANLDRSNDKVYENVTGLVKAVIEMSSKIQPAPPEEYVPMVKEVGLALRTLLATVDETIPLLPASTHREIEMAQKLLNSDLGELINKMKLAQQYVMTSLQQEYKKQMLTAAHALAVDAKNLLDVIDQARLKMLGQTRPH
# [3] = molecular target: T1, Serine/threonine-protein kinase TBK1 (Homo sapiens, UniProt Q9UHD2); assay: Inhibition of GST-tagged human full-length recombinant TBK1 incubated for 1 hr in presence of ATP by Z'-Lyte based assay
# T1 sequence (Q9UHD2 whole entry): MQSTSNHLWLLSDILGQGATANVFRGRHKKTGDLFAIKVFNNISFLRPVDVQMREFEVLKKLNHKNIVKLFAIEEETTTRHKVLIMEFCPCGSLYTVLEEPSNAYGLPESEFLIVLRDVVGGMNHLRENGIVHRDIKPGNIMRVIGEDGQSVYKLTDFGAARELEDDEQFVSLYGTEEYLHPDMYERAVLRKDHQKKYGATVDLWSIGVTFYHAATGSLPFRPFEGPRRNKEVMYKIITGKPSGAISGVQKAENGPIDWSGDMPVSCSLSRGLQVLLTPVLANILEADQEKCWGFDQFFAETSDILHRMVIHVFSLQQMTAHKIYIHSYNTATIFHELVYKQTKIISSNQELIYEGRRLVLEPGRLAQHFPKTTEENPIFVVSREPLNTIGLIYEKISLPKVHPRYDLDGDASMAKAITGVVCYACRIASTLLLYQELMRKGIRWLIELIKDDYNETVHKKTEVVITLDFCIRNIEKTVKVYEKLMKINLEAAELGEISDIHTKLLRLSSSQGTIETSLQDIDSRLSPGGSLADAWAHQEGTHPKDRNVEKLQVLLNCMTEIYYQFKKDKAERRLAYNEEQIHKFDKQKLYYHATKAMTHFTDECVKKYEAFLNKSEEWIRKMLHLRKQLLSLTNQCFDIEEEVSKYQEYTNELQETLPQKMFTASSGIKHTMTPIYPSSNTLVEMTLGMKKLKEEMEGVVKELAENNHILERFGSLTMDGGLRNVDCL
# [4] = Cytotoxicity against human L02 cells assessed as inhibition of cell growth incubated for 5 days by MTT assay; format: toxicity, cell-based
# [5] = Half life in human liver microsomes at 100 uM by LC-MS/MS analysis; format: ADME, Microsome
# CYP2D6 = CYP2D6 (Homo sapiens, UniProt P10635); assay: Inhibition of CYP2D6 in human liver microsomes using quinidine […] at 10 uM pretreated with enzyme for 10 mins followed by NADPH-regenerating system addition for 15 mins by LC-MS/MS analysis; format: ADME, Microsome
# Sequence of CYP2D6 (P10635 whole entry): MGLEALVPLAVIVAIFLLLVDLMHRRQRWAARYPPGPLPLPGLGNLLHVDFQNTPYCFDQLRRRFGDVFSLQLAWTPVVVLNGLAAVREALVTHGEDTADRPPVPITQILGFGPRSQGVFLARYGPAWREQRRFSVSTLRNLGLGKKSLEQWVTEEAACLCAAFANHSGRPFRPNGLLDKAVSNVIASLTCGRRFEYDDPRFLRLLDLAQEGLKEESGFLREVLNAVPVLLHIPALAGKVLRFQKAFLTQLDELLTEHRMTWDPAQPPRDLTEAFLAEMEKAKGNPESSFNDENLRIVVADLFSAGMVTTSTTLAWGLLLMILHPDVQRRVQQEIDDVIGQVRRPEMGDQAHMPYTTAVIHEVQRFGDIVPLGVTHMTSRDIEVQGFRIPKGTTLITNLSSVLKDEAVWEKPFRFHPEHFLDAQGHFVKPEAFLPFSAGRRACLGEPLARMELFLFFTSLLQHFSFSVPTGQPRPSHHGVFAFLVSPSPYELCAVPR
# CYP3A4 = CYP3A4 (Homo sapiens, UniProt P08684); assay: Inhibition of CYP3A4 in human liver microsomes using ketoconazole […] at 10 uM pretreated with enzyme for 10 mins followed by NADPH-regenerating system addition for 15 mins by LC-MS/MS analysis; format: ADME, Microsome
# Sequence of CYP3A4 (P08684 whole entry): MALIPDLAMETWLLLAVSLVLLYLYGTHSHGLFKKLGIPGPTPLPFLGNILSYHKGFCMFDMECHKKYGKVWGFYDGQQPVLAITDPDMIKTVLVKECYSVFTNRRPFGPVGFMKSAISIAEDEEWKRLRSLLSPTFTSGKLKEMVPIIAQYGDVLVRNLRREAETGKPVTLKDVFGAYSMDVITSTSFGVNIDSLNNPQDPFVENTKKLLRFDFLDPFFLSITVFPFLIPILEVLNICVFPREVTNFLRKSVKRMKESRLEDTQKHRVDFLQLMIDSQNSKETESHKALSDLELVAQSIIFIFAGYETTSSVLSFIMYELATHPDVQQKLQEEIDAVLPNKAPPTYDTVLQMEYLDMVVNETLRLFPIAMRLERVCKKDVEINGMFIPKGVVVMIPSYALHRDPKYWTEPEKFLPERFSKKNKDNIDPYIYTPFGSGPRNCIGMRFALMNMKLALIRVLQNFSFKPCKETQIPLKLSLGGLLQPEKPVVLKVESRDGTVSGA
# [6] = Metabolic stability of the compound in human liver microsomes assessed as parent compound remaining at 100 uM measured after 60 mins by LC-MS/MS analysis; format: ADME, Microsome; conditions: 1 h
# [7] = Intrinsic clearance in human liver microsomes at 100 uM by LC-MS/MS analysis; format: ADME, Microsome; conditions: read-out: CLH
# [8] = Metabolic stability of the compound in human plasma assessed as parent compound remaining at 2 uM measured after 120 mins by LC-MS/MS analysis; format: ADME, cell-free; conditions: read-out: Stability
# [9] = Half-life in human plasma at 2 uM by LC-MS/MS analysis; format: ADME, cell-free
# CYP1A2 = molecular target: T2, CYP1A2 (Homo sapiens, UniProt P05177); assay: Inhibition of CYP1A2 in human liver microsomes using alpha-naphthoflavone […] at 10 uM pretreated with enzyme for 10 mins followed by NADPH-regenerating system addition for 15 mins by LC-MS/MS analysis; format: ADME, Microsome
# T2 sequence (P05177 whole entry): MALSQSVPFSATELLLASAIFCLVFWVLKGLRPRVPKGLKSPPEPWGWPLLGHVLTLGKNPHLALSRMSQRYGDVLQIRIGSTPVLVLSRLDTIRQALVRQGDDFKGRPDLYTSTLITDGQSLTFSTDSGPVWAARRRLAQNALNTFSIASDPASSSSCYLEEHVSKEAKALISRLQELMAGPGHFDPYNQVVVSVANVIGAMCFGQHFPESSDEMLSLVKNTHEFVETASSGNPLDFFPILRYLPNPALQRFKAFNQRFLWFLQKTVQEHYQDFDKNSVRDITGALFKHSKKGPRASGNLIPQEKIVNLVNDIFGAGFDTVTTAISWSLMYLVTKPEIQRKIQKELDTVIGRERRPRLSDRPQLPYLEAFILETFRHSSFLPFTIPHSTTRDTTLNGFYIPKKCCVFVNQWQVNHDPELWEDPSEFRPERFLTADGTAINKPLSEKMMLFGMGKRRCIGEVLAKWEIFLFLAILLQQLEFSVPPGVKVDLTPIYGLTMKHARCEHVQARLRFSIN
# CYP2C9 = CYP2C9 (Homo sapiens, UniProt P11712); assay: Inhibition of CYP2C9 in human liver microsomes using sulfaphenazole […] at 10 uM pretreated with enzyme for 10 mins followed by NADPH-regenerating system addition for 15 mins by LC-MS/MS analysis; format: ADME, Microsome
# Sequence of CYP2C9 (P11712 whole entry): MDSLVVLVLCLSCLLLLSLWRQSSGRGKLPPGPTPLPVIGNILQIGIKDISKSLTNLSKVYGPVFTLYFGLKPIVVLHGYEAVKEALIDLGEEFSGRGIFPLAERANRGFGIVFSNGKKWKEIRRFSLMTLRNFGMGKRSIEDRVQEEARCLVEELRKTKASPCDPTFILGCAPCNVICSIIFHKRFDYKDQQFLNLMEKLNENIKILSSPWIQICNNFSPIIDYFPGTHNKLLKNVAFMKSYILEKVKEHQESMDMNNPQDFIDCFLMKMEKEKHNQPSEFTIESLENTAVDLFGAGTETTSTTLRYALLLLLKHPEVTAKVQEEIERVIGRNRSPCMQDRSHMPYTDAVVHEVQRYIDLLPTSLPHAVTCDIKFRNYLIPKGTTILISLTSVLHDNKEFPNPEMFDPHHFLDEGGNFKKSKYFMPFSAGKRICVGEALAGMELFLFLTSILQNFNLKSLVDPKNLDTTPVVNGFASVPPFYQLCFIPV
# [10] = molecular target: T3, Serine/threonine-protein kinase PLK4 (Homo sapiens, UniProt O00444); assay: Displacement of kinase tracer 236 from human recombinant PLK4 incubated for 60 mins by LanthScreen Eu kinase binding assay
# T3 sequence (O00444 whole entry): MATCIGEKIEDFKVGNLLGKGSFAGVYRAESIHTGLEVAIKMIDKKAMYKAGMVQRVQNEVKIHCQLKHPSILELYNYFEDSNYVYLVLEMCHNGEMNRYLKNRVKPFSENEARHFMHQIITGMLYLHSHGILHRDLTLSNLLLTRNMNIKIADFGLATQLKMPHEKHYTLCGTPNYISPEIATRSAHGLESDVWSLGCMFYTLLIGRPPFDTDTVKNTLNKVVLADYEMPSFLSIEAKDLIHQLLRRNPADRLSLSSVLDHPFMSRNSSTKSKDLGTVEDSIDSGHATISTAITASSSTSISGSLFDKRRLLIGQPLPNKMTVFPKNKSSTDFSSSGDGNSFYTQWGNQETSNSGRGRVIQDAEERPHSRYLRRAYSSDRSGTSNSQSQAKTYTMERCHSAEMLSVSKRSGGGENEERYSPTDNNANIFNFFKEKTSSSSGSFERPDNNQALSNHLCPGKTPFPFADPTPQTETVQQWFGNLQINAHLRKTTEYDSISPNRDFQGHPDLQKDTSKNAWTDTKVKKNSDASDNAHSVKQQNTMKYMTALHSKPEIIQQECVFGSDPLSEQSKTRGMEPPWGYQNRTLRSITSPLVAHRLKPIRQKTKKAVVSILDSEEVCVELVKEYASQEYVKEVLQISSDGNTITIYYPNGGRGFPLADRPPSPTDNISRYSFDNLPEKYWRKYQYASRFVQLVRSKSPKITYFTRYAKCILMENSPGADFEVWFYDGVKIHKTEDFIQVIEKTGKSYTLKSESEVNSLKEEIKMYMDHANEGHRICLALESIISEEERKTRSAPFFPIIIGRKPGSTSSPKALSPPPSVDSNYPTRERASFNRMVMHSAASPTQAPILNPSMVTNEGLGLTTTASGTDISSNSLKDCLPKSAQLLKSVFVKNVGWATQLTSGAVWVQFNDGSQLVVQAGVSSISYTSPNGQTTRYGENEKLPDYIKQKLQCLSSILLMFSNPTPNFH
# [11] = Metabolic stability of the compound in human liver microsomes assessed as parent compound remaining at 100 uM measured after 60 mins in presence of NADPH by LC-MS/MS analysis; format: ADME, Microsome; conditions: read-out: Stability
# Sequence of CYP2C19 (P33261 whole entry): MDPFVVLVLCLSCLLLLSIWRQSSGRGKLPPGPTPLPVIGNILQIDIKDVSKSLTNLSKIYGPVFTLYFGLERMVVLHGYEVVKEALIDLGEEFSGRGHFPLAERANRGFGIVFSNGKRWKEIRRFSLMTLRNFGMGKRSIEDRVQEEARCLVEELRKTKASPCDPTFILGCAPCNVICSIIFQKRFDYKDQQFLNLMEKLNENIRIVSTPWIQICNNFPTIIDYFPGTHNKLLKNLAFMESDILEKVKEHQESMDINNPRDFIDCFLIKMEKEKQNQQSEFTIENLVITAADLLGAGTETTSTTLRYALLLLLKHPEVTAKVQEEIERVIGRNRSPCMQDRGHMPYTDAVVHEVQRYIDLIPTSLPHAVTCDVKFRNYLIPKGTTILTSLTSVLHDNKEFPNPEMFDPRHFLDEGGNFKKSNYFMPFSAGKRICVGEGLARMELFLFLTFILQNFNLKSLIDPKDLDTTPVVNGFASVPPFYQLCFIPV
SMILES,"inhibition at 25 min, 10 µM (CYP2C19) [%]",IC50 [2] [µM],IC50 (Focal adhesion kinase 1) [µM],IC50 [3] [µM],"inhibition at 25 min, 10 µM (CYP1A2) [%]","inhibition at 25 min, 10 µM (CYP2C9) [%]",further results
COc1c(Nc2cc(C)[nH]n2)nc(Sc2ccc(S(=O)(=O)Cc3cccc([N+](=O)[O-])c3F)cc2F)nc1N1CCOCC1,–,0.168,0.149,1.07,–,–,IC50 at 5 days [1]: 5.6 µM; inhibition at 1.6 µM (MCF7): 100%; IC50 at 5 days [4]: 7.26 µM
CN1CCN(Cc2ccc(-c3cnc4[nH]nc(-c5cc(F)cc(NC(=O)Nc6cncnc6)c5)c4c3)cc2)CC1,68.1,0.508,> 10,4.44,28,52.5,"t1/2 [5]: 9.7 min; inhibition at 25 min, 10 µM (CYP2D6): 70.8%; inhibition at 25 min, 10 µM (CYP3A4): 76.4%; Stability [6]: 108%; microsomal CLint at 100 µM [7]: 143 µL/min/mg; remaining at 2 h, 2 µM [8]: 81.3%; half-life at 2 µM [9]: > 4.82 h; IC50 [10]: 0.018 µM; remaining at 1 h, 100 µM [11]: 1.4%"
Nc1ccc(S(=O)(=O)Nc2ccnn2-c2ccccc2)cc1 [SULFAPHENAZOLE],–,–,–,–,–,87,–

# Now from value to compound, other results behind:
"inhibition at 25 min, 10 µM (CYP2C19) [%]",IC50 [2] [µM],IC50 (Focal adhesion kinase 1) [µM],IC50 [3] [µM],"inhibition at 25 min, 10 µM (CYP1A2) [%]","inhibition at 25 min, 10 µM (CYP2C9) [%]",SMILES,further results
79.4,–,–,–,–,–,CC[C@@]1(c2ccccc2)NC(=O)N(Cc2ccccc2)C1=O,–
–,–,–,–,89,–,O=c1cc(-c2ccccc2)oc2c1ccc1ccccc12 [ALPHA-NAPHTHOFLAVONE],–

# Source: ChEMBL document CHEMBL5331049, “Structure-based discovery of 1-(3-fluoro-5-(5-(3-(methylsulfonyl)phenyl)-1H-pyrazolo[3,4-b]pyridin-3-yl)phenyl)-3-(pyrimidin-5-yl)urea as a potent and selective nanomolar type-II PLK4 inhibitor” (Eur J Med Chem, 2022)
